This is an account of results in US20240246980A1, “MODULATORS OF MAS-RELATED G-PROTEIN RECEPTOR D AND RELATED PRODUCTS AND METHODS” (Escient Pharmaceuticals, Inc., priority 2022, published 2024).

In this test the target is human MRGPRD (Homo sapiens, UniProt Q8TDS7). As to the kind of experiment: MRGPRD antagonist activity, IP-One HTRF assay in CHO cells stably expressing human MRGPRD (versus 100 μM β-Alanine agonist). The class given is cell-based. The procedure, abridged:
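Cells (20,000/well, plated overnight) received antagonist and agonist in buffer with 5.7 mM Tris-HCl, 43 mM NaCl and 50 mM LiCl at pH 8. Incubation ran 1 h at 37 °C, then 1 h at room temperature, before IP-1 HTRF detection. IC50 was fitted from the HTRF ratio, and percent antagonism was taken relative to the maximum efficacy response, given as averages with SEM.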
(In general: Time-resolved FRET reads energy transfer from a long-lived donor to a nearby acceptor.)

pIC50: −log10 of the molar value.

For orientation: pIC50 means the negative decadic logarithm of the IC50, by convention in mol/L. The low end stands for a large IC50, the high end for a small IC50.

Chain of human MRGPRD (Q8TDS7 whole entry): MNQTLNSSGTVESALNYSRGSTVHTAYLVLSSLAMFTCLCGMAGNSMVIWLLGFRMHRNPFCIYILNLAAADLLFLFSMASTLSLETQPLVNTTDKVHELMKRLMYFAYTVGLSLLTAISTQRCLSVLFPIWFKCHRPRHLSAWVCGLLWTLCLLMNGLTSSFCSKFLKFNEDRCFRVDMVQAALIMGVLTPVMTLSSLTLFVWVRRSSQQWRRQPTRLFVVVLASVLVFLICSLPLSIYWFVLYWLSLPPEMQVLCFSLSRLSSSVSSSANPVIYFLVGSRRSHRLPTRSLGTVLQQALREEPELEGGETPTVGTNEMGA

Compound `COc1cccc(-c2nc(C3CCCN(C(=O)NCC4CC4)C3)n3ccccc23)c1` (centres unmarked) [Compound 3-14] had a pIC50 below 5.52.
In the case of `CCNC(=O)N1CCCC(c2nc(-c3cccc(OC)c3)c3ccccn23)C1` (centres unmarked) [Compound 3-9], the pIC50 was 6.30 to 7.00.
Consider `COc1cccc(-c2nc([C@@H]3CCCN(C(=O)Nc4cnc(N(C)C)nc4)C3)n3ccccc23)c1` [Compound 5-72], for which the negative logarithm of the IC50 (pIC50) was above 7.00.
`COc1cccc(-c2nc(C3CCCN(C(=O)NC(C)(C)C)C3)n3ccccc23)c1` (centres unmarked) [Compound 3-10] had a negative-log IC50 (pIC50) of 6.00 to 6.30.
In turn, `COc1cccc(-c2nc([C@@H]3CCCN(C(=O)Nc4ccc(N(C)C)cc4C)C3)n3ccccc23)c1` [Compound 1-8] gave a pIC50 above 7.00.
As for `COc1cccc(-c2nc([C@@H]3CCCN(C(=O)Nc4ccc5ccccc5c4)C3)n3ccccc23)c1` [Compound 1-31], the negative logarithm of the IC50 (pIC50) is 6.30 to 7.00.
With `CN(C)c1ccc(NC(=O)N2CCC[C@@H](c3nc(-c4cccc(C#N)c4)c4ccccn34)C2)cc1` [Compound 10-12], the pIC50 was 6.00 to 6.30.
For `CCOc1cccc(NC(=O)N2CCC[C@@H](c3nc(-c4cccc(OC)c4)c4ccccn34)C2)c1` [Compound 1-24], the pIC50 is above 7.00.
Regarding `CN(C)c1ccc(NC(=O)N2CCC[C@@H](c3nc(-c4cnn(CC5CC5)c4)c4ccccn34)C2)cc1` [Compound 10-62], the pIC50 was 5.52 to 6.00.
With `COc1cccc(-c2nc(C3CCCN(C(=O)c4ccc(F)c(F)c4)C3)n3ccccc23)c1` (centres unmarked) [Compound 12-12], the negative logarithm of the IC50 (pIC50) is 6.00 to 6.30.
Under `COc1cccc(-c2nc([C@@H]3CCCN(C(=O)Nc4ccc(CN(C)C)cc4)C3)n3ccccc23)c1` [Compound 1-26] stands 6.30 to 7.00.
Consider `CCN(CC)c1ccc(NC(=O)N2CCC[C@@H](c3nc(-c4cccc(OC)c4)c4ccccn34)C2)cc1` [Compound 1-19], for which the negative logarithm of the IC50 (pIC50) was above 7.00.
`COc1cccc(-c2nc(C3CCCN(C(=O)Nc4ccccc4Cl)C3)n3ccccc23)c1` (centres unmarked) [Compound 3-7] gave a pIC50 of 6.00 to 6.30.
Regarding `COc1cccc(-c2nc([C@@H]3CCCN(C(=O)NCc4ccccc4)C3)n3ccccc23)c1` [Compound 5-60], the pIC50 is above 7.00.
Under `COc1cccc(NC(=O)N2CCCC(c3nc(-c4cccc(OC)c4)c4ccccn34)C2)c1` (centres unmarked) [Compound 3-16] stands 6.30 to 7.00; under `COCCNC(=O)N1CCC[C@@H](c2nc(-c3cccc(OC)c3)c3ccccn23)C1` [Compound 5-41], 6.30 to 7.00; under `COc1cccc(NC(=O)N2CCC[C@@H](c3nc(-c4cccc(OC)c4)c4ccccn34)C2)c1` [Compound 1-9], above 7.00.
The figure for `COc1cccc(-c2nc(C3CCCN(C(=O)Nc4ccc(C)c(C)c4)C3)n3ccccc23)c1` (centres unmarked) [Compound 3-23] is 6.30 to 7.00.
As to `COc1cccc(-c2nc([C@@H]3CCCN(C(=O)c4cccc(F)c4)C3)n3ccccc23)c1` [Compound 12-14], the pIC50 is 6.00 to 6.30.
As to `COc1cccc(-c2nc([C@@H]3CCCN(C(=O)Nc4cc(C#N)on4)C3)n3ccccc23)c1` [Compound 5-69], the pIC50 was above 7.00.
`COc1cccc(-c2nc([C@@H]3CCCN(C(=O)NCCN4CCOCC4)C3)n3ccccc23)c1` [Compound 10-38]: the pIC50 is 6.00 to 6.30.
Consider `COc1cccc(-c2nc([C@@H]3CCCN(C(=O)Nc4ccc(C(C)=O)cc4)C3)n3ccccc23)c1` [Compound 5-24], for which the pIC50 is above 7.00.
Under `CN(C)c1ccc(NC(=O)N2CCC[C@@H](c3nc(-c4ccccc4Cl)c4ccccn34)C2)cc1` [Compound 10-8] stands 6.00 to 6.30; under `COc1cccc(-c2nc([C@@H]3CCCN(C(=O)Nc4ccc5c(c4)COCO5)C3)n3ccccc23)c1` [Compound 5-57], above 7.00.
`COc1ncc(-c2nc([C@@H]3CCCN(C(=O)Nc4ccc(N(C)C)cc4)C3)n3ccccc23)cn1` [Compound 10-60] showed a pIC50 below 5.52.
Under `COc1cccc(-c2nc([C@H]3CCCN(C(=O)c4cccc(F)c4)C3)n3ccccc23)c1` [Compound 12-15] stands 6.30 to 7.00.
Compound `Cc1cccc(-c2nc(C3CCCN(C(=O)Nc4ccccc4F)C3)n3ccccc23)c1` (centres unmarked) [Compound 11-4] gave a pIC50 below 5.52.
`COc1cccc(-c2nc([C@H]3CCCN3C(=O)Nc3ccc(N(C)C)cc3)n3ccccc23)c1` [Compound 21-6] showed a pIC50 below 5.52.
`COc1cccc(-c2nc([C@@H]3CCCN(C(=O)Nc4cccc(CN(C)C)c4)C3)n3ccccc23)c1` [Compound 5-31] had a negative logarithm of the IC50 (pIC50) of 6.30 to 7.00.
The compound `COc1cccc(-c2nc(C3CCCN(C(=O)c4cccc(F)c4)C3)n3ccccc23)c1` (centres unmarked) [Compound 12-6] gave a negative-log IC50 (pIC50) of 6.30 to 7.00.
For the compound `O=C(Nc1ccccc1F)N1CCCC(c2nc(-c3ccccn3)c3ccccn23)C1` (centres unmarked) [Compound 11-11], the negative logarithm of the IC50 (pIC50) is below 5.52.
`COc1cccc(-c2nc([C@@H]3CCCN(C(=O)Nc4ccc(N(C)C)c(C)c4)C3)n3ccccc23)c1` [Compound 1-7] had a pIC50 above 7.00.
Compound `COC/C=C/c1nc([C@@H]2CCCN(C(=O)Nc3ccc(N(C)C)cc3)C2)n2ccccc12` [Compound 10-39] showed a negative-log IC50 (pIC50) below 5.52.
`COc1cccc(-c2nc(C3CCCN(C(=O)Nc4cccc(C#N)c4)C3)n3ccccc23)c1` (centres unmarked) [Compound 3-21] gave a pIC50 of 6.30 to 7.00.
`COc1cccc(-c2nc([C@@H]3CCCN(C(=O)Nc4ccc5c(c4)OCO5)C3)n3ccccc23)c1` [Compound 5-27] showed a pIC50 above 7.00.
`COc1cccc(-c2nc([C@@H]3CCCN(C(=O)NC4CCS(=O)(=O)CC4)C3)n3ccccc23)c1` [Compound 5-48]: the pIC50 was 6.30 to 7.00.
As for `COc1ccccc1-c1nc([C@H]2CCCN(C(=O)Nc3ccc(N(C)C)cc3)C2)n2ccccc12` [Compound 10-31], the pIC50 was below 5.52.
Consider `CC(O)c1cccc(-c2nc([C@@H]3CCCN(C(=O)Nc4ccc(N(C)C)cc4)C3)n3ccccc23)c1` (some centres unmarked) [Compound 10-18], for which the negative logarithm of the IC50 (pIC50) was 6.30 to 7.00.
The figure for `COc1cccc(-c2nc(C3CCCN(C(=O)Nc4ccccc4F)C3)n3ccc(C)cc23)c1` (centres unmarked) [Compound 17-2] is 6.00 to 6.30; for `CN(C)c1ccc(NC(=O)N2CCC[C@@H](c3nc(-c4ccc(C(F)(F)F)cc4)c4ccccn34)C2)cc1` [Compound 10-30] it is 5.52 to 6.00.
`COc1cccc(-c2nc(C3CCCN(C(=O)c4ccc(C)cc4C)C3)n3ccccc23)c1` (centres unmarked) [Compound 12-8] showed a pIC50 of 5.52 to 6.00.
In turn, `COc1cccc(-c2nc(C3CCCN(C(=O)Cc4cccc(F)c4)C3)n3ccccc23)c1` (centres unmarked) [Compound 12-4] gave a pIC50 of 6.30 to 7.00.
With `CN(C)Cc1cccc(-c2nc([C@@H]3CCCN(C(=O)Nc4ccc(N(C)C)cc4)C3)n3ccccc23)c1` [Compound 10-64], the pIC50 is below 5.52.
`CN(C)c1ccc(NC(=O)N2CCC[C@@H](c3nc(-c4ccc(S(C)(=O)=O)cc4)c4ccccn34)C2)cc1` [Compound 10-35] had a pIC50 below 5.52.
`COc1cccc(-c2nc(-c3cccc(C(=O)Nc4cccc(N(C)C)c4)c3)n3ccccc23)c1` [Compound 8-1, N-(3-(dimethylamino)phenyl)-3-(1-(3-methoxyphenyl)imidazo[1,5-a]pyridin-3-yl)benzamide] gave a negative-log IC50 (pIC50) of 6.30 to 7.00.
The figure for `COCCCc1nc([C@@H]2CCCN(C(=O)Nc3ccc(N(C)C)cc3)C2)n2ccccc12` [Compound 10-41] is 5.52 to 6.00; for `COc1cccc(-c2nc(C3CCCN(C(=O)Nc4ccccc4F)C3)n3ccccc23)c1` (centres unmarked) [Compound 3-28] it is 6.30 to 7.00.
